Data set [1] relates to BALB/c mice inoculated with murine carcinoma of the breast (L-MM3). Kind of data set: Taxol-induced neutropenia in mice with L-MM3 carcinoma of the breast, blood cell count. How it is done: In addition, in this tumour model, the amount of circulating neutrophils was measured.
Acetyl L-carnitine inner salt (sterile ampoule), solubilised in water for injectable preparations, was used. Each ampoule of ALC is dissolved in 4 ml of water for injections (Solution O). 0.8 ml of (O) are brought to 50 ml with sterile PBS (Sigma) in order to perform the oral administration (100 mg/kg/50 ml).
(§1) At the time of use, the 12 mg/ml solution is diluted 1:4 with saline in phosphate buffer (PBS) (SIGMA,) and injected i.p. (30 mg/kg/10 ml).
Animals: 120 female BALB/c mice weighing 18-20 g (Harlan)
Treatment schedule 1: the transplantable murine breast cancer cells (L-MM3) of Balb/c origin are grown at 37° C. in plastic flasks in a 5% CO2 humidified incubator in DMEM medium containing 5% heat-inactivated FCS, L-glutamine 2 mM, and gentamicin 80 μg/ml. At the time of inoculation, the cells are detached with trypsin-EDTA and re-suspended in the same medium without […].
Unanaesthetised female Balb/c mice received subcutaneous injections in the flank of 4×10^5 cells in 0.2 ml of DMEM.
Four days after inoculation of the tumour, the animals were treated with the molecules according to the following schedule, for the purposes of evaluating neutropenia:
ALC is administered then for 10 days; the animals are sacrificed after 6 hours.
The experimental groups, each consisting of 15 mice, are:
Blood and bone marrow samples are taken for the first treatment schedule animals. On the days they are sacrificed, the mice are anaesthetised with CO2; blood is taken from the retro-orbital plexus (0.5 ml blood/mouse) and placed in Eppendorf test tubes containing 10 μl of Vister heparin (5000 U/ml). The animals are sacrificed by cervical dislocation. Later, the bone marrow samples are taken.
(§2) The instrument is used according to the instructions provided in the operating manual. The blood (25 μl) is taken from the dilutor and brought to a volume of 10 ml with isotonic solution (PLTA Saline, Delcon) in a beaker (dil. 1:400) (Solution A). From Solution A, the dilutor takes 100 μl and brings them to 10 ml (dil. 1:100) in another beaker (Solution B). To Solution A are added 3 drops of lysing agent (Emosol, Delcon), the solution is mixed by hand and left to act for approximately 2 minutes so that the red blood cells are lysed and HGB (haemoglobin) released. Solution A containing the lysing agent is used for the WBC and haemoglobin (HGB) readings. Solution B is used for the RBC and platelet (PLT) readings.
Double readings are done on each sample, and between one sample and the next, the instrument is washed using isotonic solution, Superfrost plus slides (25×75×1 mm) (Mensel-Glaser), ready for use, are adopted. The blood (8 μl) is deposited on the right-hand side of the slide; another slide, placed at a 45° angle, to the left of the blood, is drawn back until in comes into contact with the drop which spreads rapidly along the contact line between the two slides; the slide is moved forwards with a smooth, rapid movement so as to obtain a thin film of blood. The slide is left to dry in air, stained with Diff-Quick (DADE) dye, according to the attached instructions, and dried again in air.
The slides are immersed in Histolemon solution (Carlo Erba) for 2 sec.; a drop of synthetic mountant (Shandon) is deposited at the centre of the slide and a cover slide is placed over it covering the entire blood smear, taking care not to form bubbles between the two slides. The slides are dried and then the WBC count is performed, up to 100, with an optical microscope, after depositing a drop of cedar oil on the slide.
(§3) The quantity of […], assessed using the haemocytometer, is multiplied by the percentage value of the corresponding neutrophil granulocytes of the leukocyte formula. This parameter, divided by 100, expresses the value of neutrophils/mm^3 blood.
Comparison between the neutrophil granulocyte values obtained for the different groups is done using ANOVA.

Data set [2] concerns female BALB/c mice. The data set is described as follows: Taxol (i.p.)-induced neutropenia in the mouse, blood cell count. As for the experimental part: In this model, the amount of circulating neutrophils was measured.
Acetyl L-carnitine inner salt (sterile ampoule), solubilised in water for injectable preparations, was used. Each ampoule of ALC is dissolved in 4 ml of water for injections (Solution O). Two ml of (O) are brought up to 25 ml with sterile PBS (Sigma), so as to have 10 mg/ml for subcutaneous administration (100 mg/kg/ 10 ml); 0.8 ml of (O) are brought to 50 ml with PBS in order to have 2 mg/ml for oral administration (100 mg/kg/50 ml).
as §1
The mice are anaesthetised with CO2; blood is taken from the retro-orbital plexus (0.5 ml blood/mouse) and placed in Eppendorf test tubes containing 10 μl of Vister heparin (5000 U/ml). The animals are sacrificed by cervical dislocation. Later, the bone marrow samples are taken.
as §2
Double readings are done on each sample, and between one sample and the next, the instrument is washed using isotonic solution,
Superfrost plus slides (25×75×1 mm) (Mensel-Glaser), ready for use, are adopted. The blood (8 μl) is deposited on the right-hand side of the slide; another slide, placed at a 45° angle, to the left of the blood, is drawn back until in comes into contact with the drop which spreads rapidly along the contact line between the two slides; the slide is moved forwards with a smooth, rapid movement so as to obtain a thin film of blood. The slide is left to dry in air, stained with Diff-Quick (DADE) dye, according to the attached instructions, and dried again in air.
The slides are immersed in Histolemon solution (Carlo Erba) for 2 sec.; a drop of synthetic mountant (Shandon) os deposited at the centre of the slide and a cover slide is placed over it covering the entire blood smear, taking care not to form bubbles between the two slides. The slides are dried and then the WBC count is performed, up to 100, with an optical microscope, after depositing a drop of cedar oil on the slide.
as §3
Data are expressed as means ±SE. Comparison between the neutrophil granulocyte values obtained for the different groups is done using ANOVA. Abnormal values are subjected to the Dixon test.

Where [3] appears, read: L-MM3-bearing mice, sacrifice 6 hours after last taxol.
Setting [4] is: 6 hours after last administration (Table 4).
Where [5] appears, read: taxol 30 mg/kg i.p. x4, ALC 100 mg/kg, sacrifice 6 hours after last taxol administration.
Setting [6] is: taxol 30 mg/kg i.p. x4 on alternate days, ALC 100 mg/kg, sacrifice 6 hours after last taxol administration.
Where [7] appears, read: taxol i.p., sacrifice 3 days after last taxol administration.
The mark [8] stands for this setting: three days after last administration (Table 5).

With `CC(=O)O[C@H](CC(=O)[O-])C[N+](C)(C)C` [Vehicle + ALC, acetyl L-carnitine], the Absolute neutrophils entry was “***607 ± 68 ^ /mm^3” in data set [1] (setting [3]), 511 ± /mm^3 in data set [2] (setting [5]) and 625 ± /mm^3 in data set [2] (setting [7]). Further, the Lymphocytes in data set [1] (setting [3]) amounted to 87.6 ± 0.9%; in data set [2] (setting [5]), 91.5%; in data set [2] (setting [7]), 89.2%. For the same compound, the Neutrophils in data set [1] (setting [3]) is 12.3 ± 0.9%; in data set [2] (setting [5]) it was 8.5%; in data set [2] (setting [7]), 10.7%. The compound also registered a Platelets in data set [1] (setting [3]) of 433000 ± 45731 mm^3. Further, the WBC in data set [1] (L-MM3-bearing mice, taxol 30 mg/kg i.p. x4, ALC 100 mg/kg os 10 days, sacrifice 6 hours after last taxol) was 4950 ± 385 Mm^3; in data set [2] (setting [6]) it was 5950 Mm^3; in data set [2] (setting [7]), 6067 Mm^3. Further, the “changes in neutrophils compared to vehicle alone or untreated animals (in words)” value in data set [2] (setting [4]) and in data set [2] (setting [8]) was “no changes” in each case.

For `CC(=O)O[C@H](CC(=O)[O-])C[N+](C)(C)C` [ALC, acetyl L-carnitine], the neutrophil granulocytes in data set [1] (acetyl L-carnitine 100 mg/kg os once daily for 10 days combined with taxol 30 mg/kg i.p. x4) was 335 /mm^3. Moreover, the “changes in neutrophils compared to vehicle alone or untreated animals (in words)” value in data set [2] (setting [4]) and in data set [2] (setting [8]) was “no changes” throughout. Further, the “polymorphonucleates, change under taxol with acetyl L-carnitine” value in data set [2] (acetyl L-carnitine 100 mg/kg oral (os) with taxol 30 mg/kg i.p. x4) is reported as −23%; in data set [2] (acetyl L-carnitine 100 mg/kg subcutaneous (sc) with taxol 30 mg/kg i.p. x4) it was 8-43%. Also, the Absolute neutrophils in data set [2] (setting [5]) is on record as 708 ± /mm^3; in data set [2] (setting [7]), 691 ± /mm^3. The results for the Lymphocytes in data set [2] (setting [5]) and in data set [2] (setting [7]) were 88.7% and 89.9%, respectively. Besides, the Neutrophils in data set [2] (setting [5]) turned out to be 11.2%; in data set [2] (setting [7]), 10.1%. In addition, the WBC in data set [2] (setting [6]) was 6452 Mm^3; in data set [2] (setting [7]) it was 6920 Mm^3.

In the case of `CC(=O)O[C@H]1C(=O)[C@@]2(C)[C@H]([C@H](OC(=O)c3ccccc3)[C@]3(O)C[C@H](OC(=O)[C@H](O)[C@@H](NC(=O)c4ccccc4)c4ccccc4)C(C)=C1C3(C)C)[C@]1(OC(C)=O)CO[C@@H]1C[C@@H]2O` [Taxol, paclitaxel, reference compound], in data set [1] (mouse, in vivo), the Lymphocytes came out at 98.6 ± 0.2%, the Neutrophils entry is “****1.3 ± 0.2^ %” and the Platelets was determined as 539000 ± 36057 mm^3. In addition, in data set [2] (mouse, in vivo), the “neutrophil granulocytes vs vehicle” value is −64% and the reduction in neutrophils is listed as 98%. Moreover, in data set [2] (mouse, in vivo, ip), the Absolute neutrophils entry is “****250 ± /mm^3”, the Lymphocytes is 95.5%, the Neutrophils amounted to 4.5% and the WBC is given as 5855 Mm^3.

For the origin of these results see patent US6610699B2, “Use of L-carnitine and its alkanoyl derivatives in the preparation of medicaments with anticancer activity” (Sigma-Tau Industrie Farmaceutiche Riunite S.p.A., priority 1998, dated 2003).
